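Cells were grown in 96-well plates and exposed to each compound for 48 hours at five concentrations; endpoints were interpolated linearly between bracketing concentrations, or set to the highest concentration if not reached. GI50 = concentration required for 50% inhibition of growth.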 The source made the active and inactive calls. Rule as the data show it: active = GI50 up to about 1.1 µM and inactive = higher.
Experiments:
Assay in all cases: inhibition of tumour cell growth, NCI panel, 48 h
SK-MEL-2 = tested on: SK-MEL-2
RXF 393 = tested on: RXF 393
MCF7 = tested on: MCF7
NCI-H23 = tested on: NCI-H23
COLO 205 = tested on: COLO 205
HCT-116 = tested on: HCT-116
NCI-H460 = tested on: NCI-H460
NCI/ADR-RES = tested on: NCI/ADR-RES
RPMI-8226 = tested on: RPMI-8226
NCI-H522 = tested on: NCI-H522
K562 = tested on: K562
EKVX = tested on: EKVX
786-0 = tested on: 786-0
SK-OV-3 = tested on: SK-OV-3
CAKI-1 = tested on: CAKI-1
HOP-92 = tested on: HOP-92
HCT-15 = tested on: HCT-15
SF-539 = tested on: SF-539
OVCAR-3 = tested on: OVCAR-3
HL-60 = tested on: HL-60

| Compound | GI50 (SK-MEL-2) | GI50 (RXF 393) | GI50 (MCF7) | GI50 (NCI-H23) | GI50 (COLO 205) | GI50 (HCT-116) | GI50 (NCI-H460) | GI50 (NCI/ADR-RES) | GI50 (RPMI-8226) | GI50 (NCI-H522) | GI50 (K562) | GI50 (EKVX) | GI50 (786-0) | GI50 (SK-OV-3) | GI50 (CAKI-1) | GI50 (HOP-92) | GI50 (HCT-15) [µM] | GI50 (SF-539) | GI50 (OVCAR-3) | GI50 (HL-60) |
| --- | --- | --- | --- | --- | --- | --- | --- | --- | --- | --- | --- | --- | --- | --- | --- | --- | --- | --- | --- | --- |
| Oc1c(OCc2nnc(CCCCCCCCc3nnc(COc4ccc5ccccc5c4O)o3)o2)ccc2ccccc12 | > 100 µM (inactive) | > 100 µM (inactive) | > 100 µM (inactive) | 61.2 µM (inactive) | > 100 µM (inactive) | 0.47 µM (active) | > 100 µM (inactive) | 64 µM (inactive) | > 100 µM (inactive) | > 100 µM (inactive) | 91.6 µM (inactive) | > 100 µM (inactive) | 16.6 µM (inactive) | 44.5 µM (inactive) | 29.8 µM (inactive) | 43 µM (inactive) | > 100 |  |  |  |
| CC1(C)OC2COC3([C@@H]4OC(C)(C)O[C@@H]4CO)OC(C)(C)OC3C2O1 (some centres not stated) | > 100 µM (inactive) | > 100 µM (inactive) | > 100 µM (inactive) | > 100 µM (inactive) | > 100 µM (inactive) | > 100 µM (inactive) | > 100 µM (inactive) | > 100 µM (inactive) | > 100 µM (inactive) |  | > 100 µM (inactive) | > 100 µM (inactive) | > 100 µM (inactive) |  | > 100 µM (inactive) | > 100 µM (inactive) | > 100 | > 100 µM (inactive) | > 100 µM (inactive) |  |
| CN(C)c1ccc(/C=C/c2ccnc3ccccc23)cc1N | 8.65 µM (inactive) |  | 1.57 µM (inactive) | 5.68 µM (inactive) | 2.53 µM (inactive) |  | 8.24 µM (inactive) | 13.1 µM (inactive) | 2.52 µM (inactive) |  | 3.98 µM (inactive) | 4.72 µM (inactive) | 12.6 µM (inactive) | 15.2 µM (inactive) |  | 0.337 µM (active) | 6.24 | 14.7 µM (inactive) | 2.32 µM (inactive) | 3.52 µM (inactive) |
| O/N=C1/CCCCC1NO (configuration not stated) | > 100 µM (inactive) | > 100 µM (inactive) | > 100 µM (inactive) | > 100 µM (inactive) | > 100 µM (inactive) | > 100 µM (inactive) | > 100 µM (inactive) | > 100 µM (inactive) | > 100 µM (inactive) |  | > 100 µM (inactive) | > 100 µM (inactive) | > 100 µM (inactive) | > 100 µM (inactive) | > 100 µM (inactive) |  | > 100 | > 100 µM (inactive) | > 100 µM (inactive) | > 100 µM (inactive) |
| O=C1COc2cc(N3CCN(c4cccc(C(F)(F)F)c4)CC3)ccc2N1 | > 100 µM (inactive) |  | > 100 µM (inactive) | > 100 µM (inactive) | > 100 µM (inactive) | > 100 µM (inactive) | > 100 µM (inactive) | > 100 µM (inactive) | > 100 µM (inactive) | 86.3 µM (inactive) | > 100 µM (inactive) | > 100 µM (inactive) | > 100 µM (inactive) | > 100 µM (inactive) | > 100 µM (inactive) | > 100 µM (inactive) | > 100 | > 100 µM (inactive) | > 100 µM (inactive) | > 100 µM (inactive) |
| Cc1cn(C(C)OCCN2C(=O)c3ccccc3C2=O)c(=O)[nH]c1=O (configuration not stated) | > 100 µM (inactive) | > 100 µM (inactive) | > 100 µM (inactive) | > 100 µM (inactive) | > 100 µM (inactive) | > 100 µM (inactive) | > 100 µM (inactive) | > 100 µM (inactive) | > 100 µM (inactive) |  | > 100 µM (inactive) | > 100 µM (inactive) | > 100 µM (inactive) |  | > 100 µM (inactive) | > 100 µM (inactive) | > 100 | > 100 µM (inactive) | > 100 µM (inactive) |  |
| COc1ccc(NC(C)c2ccncc2)cc1 (configuration not stated) | > 100 µM (inactive) | > 100 µM (inactive) | > 100 µM (inactive) | > 100 µM (inactive) | > 100 µM (inactive) | > 100 µM (inactive) | > 100 µM (inactive) | > 100 µM (inactive) | > 100 µM (inactive) | > 100 µM (inactive) | > 100 µM (inactive) | > 100 µM (inactive) | > 100 µM (inactive) | 18 µM (inactive) | > 100 µM (inactive) | > 100 µM (inactive) | > 100 | > 100 µM (inactive) | > 100 µM (inactive) |  |
| C[C@@H]1CCC2[C@@H](C)C(=O)O[C@@H]3C4C[C@@H]1[C@@]23OO[C@@]4(C)O (some centres not stated) | > 100 µM (inactive) | 60.3 µM (inactive) | 62.8 µM (inactive) | 88.5 µM (inactive) | > 100 µM (inactive) | 88.3 µM (inactive) | 52 µM (inactive) | > 100 µM (inactive) | > 100 µM (inactive) | 40.8 µM (inactive) | > 100 µM (inactive) | 57.7 µM (inactive) | > 100 µM (inactive) |  | > 100 µM (inactive) | > 100 µM (inactive) | > 100 | 55.6 µM (inactive) | > 100 µM (inactive) |  |
| CN(C)CC1CCC/C(=C\c2ccc(Cl)cc2)C1=O (configuration not stated) | 1.41 µM (inactive) |  | 1.24 µM (inactive) | 8.02 µM (inactive) | 2.12 µM (inactive) | 1.8 µM (inactive) | 17.3 µM (inactive) | 3.62 µM (inactive) | 0.254 µM (active) | 1.75 µM (inactive) | 1 µM (active) | 11.2 µM (inactive) | 1.68 µM (inactive) | 10.9 µM (inactive) | 1.93 µM (inactive) | 3.15 µM (inactive) | 2.05 | 10.6 µM (inactive) | 3.21 µM (inactive) | 1.37 µM (inactive) |
| O=C(NC(=S)Nc1ccc([N+](=O)[O-])cc1)c1ccc2c(c1)Sc1ccccc1O2 | 99.1 µM (inactive) |  | > 100 µM (inactive) | > 100 µM (inactive) | > 100 µM (inactive) | > 100 µM (inactive) | > 100 µM (inactive) | > 100 µM (inactive) |  | 48.1 µM (inactive) | > 100 µM (inactive) |  | 44.8 µM (inactive) | 77.1 µM (inactive) | > 100 µM (inactive) | 37.3 µM (inactive) | > 100 | 45.7 µM (inactive) | > 100 µM (inactive) | > 100 µM (inactive) |
| Cn1c(=O)sc2cc(C(=S)N3CCN(c4ccccc4)CC3)ccc21 | 56 µM (inactive) | 30.5 µM (inactive) | 64.3 µM (inactive) | 34.1 µM (inactive) | > 100 µM (inactive) | 85.5 µM (inactive) | 51.9 µM (inactive) | 50 µM (inactive) | > 100 µM (inactive) |  | > 100 µM (inactive) | 44.3 µM (inactive) | 44 µM (inactive) | 32.3 µM (inactive) | > 100 µM (inactive) |  | 39.4 | 24.4 µM (inactive) | 54.8 µM (inactive) | 33.6 µM (inactive) |
| COc1ccc(C(=O)/C=C/c2ccc(O)c(O)c2F)c(OC)c1 | 3.05 µM (inactive) | 4.35 µM (inactive) | 0.279 µM (active) | 2.43 µM (inactive) | 11.5 µM (inactive) | 4.02 µM (inactive) | 2.75 µM (inactive) | 4.62 µM (inactive) | 1.85 µM (inactive) | 0.327 µM (active) | 2.56 µM (inactive) | 9.08 µM (inactive) | 4.43 µM (inactive) | 9.27 µM (inactive) | 3.24 µM (inactive) | 20 µM (inactive) | 0.34 | 3.2 µM (inactive) | 1.05 µM (active) |  |
| C=CC1OC(CCCOC(=O)C(C)(C)C)O[C@@H]1CC (some centres not stated) | > 100 µM (inactive) |  | > 100 µM (inactive) | > 100 µM (inactive) | > 100 µM (inactive) |  | 37.2 µM (inactive) | > 100 µM (inactive) | > 100 µM (inactive) | > 100 µM (inactive) |  | > 100 µM (inactive) |  | > 100 µM (inactive) | > 100 µM (inactive) | > 100 µM (inactive) | > 100 | > 100 µM (inactive) | > 100 µM (inactive) | 7.38 µM (inactive) |
| CC1=NN(c2nc(N)nc(/C(C#N)=C\c3ccc([N+](=O)[O-])s3)n2)C(C)(C)C1 | 0.375 µM (active) | 0.236 µM (active) | 0.142 µM (active) | 0.76 µM (active) | 0.339 µM (active) | 0.244 µM (active) | 0.209 µM (active) | 1.18 µM (inactive) | 0.0218 µM (active) | 0.101 µM (active) | < 0.0178 µM (active) | 0.817 µM (active) | 0.16 µM (active) | 8.99 µM (inactive) | 1.16 µM (inactive) | 0.302 µM (active) | 0.108 | 0.169 µM (active) | 0.124 µM (active) |  |
| CN1C2=Nc3n(C)c4ccccc4[n+]3CN2c2ccccc21 | 18.4 µM (inactive) |  | 10.5 µM (inactive) | 26.5 µM (inactive) | 12.7 µM (inactive) | 43.2 µM (inactive) | 24.2 µM (inactive) | > 100 µM (inactive) | 41.1 µM (inactive) | 16.8 µM (inactive) | 29.5 µM (inactive) | 36.1 µM (inactive) | 36.2 µM (inactive) | > 100 µM (inactive) | > 100 µM (inactive) | 22.6 µM (inactive) | > 100 | 69.5 µM (inactive) | 10.8 µM (inactive) | > 100 µM (inactive) |
| CC1=NN(c2ccccc2Cl)C2(C1)SCC(=O)N2c1nc2ccccc2s1 (configuration not stated) | > 100 µM (inactive) | > 100 µM (inactive) | > 100 µM (inactive) | > 100 µM (inactive) | > 100 µM (inactive) | > 100 µM (inactive) | > 100 µM (inactive) | > 100 µM (inactive) | > 100 µM (inactive) | > 100 µM (inactive) | > 100 µM (inactive) | > 100 µM (inactive) | > 100 µM (inactive) | > 100 µM (inactive) | > 100 µM (inactive) | > 100 µM (inactive) | > 100 | > 100 µM (inactive) | > 100 µM (inactive) |  |

Source: ChEMBL document CHEMBL1201862, “PubChem BioAssay data set” (2004)
